Test results as given in ChEMBL document CHEMBL1137071, “Phenyl thiazolyl urea and carbamate derivatives as new inhibitors of bacterial cell-wall biosynthesis” (Bioorg Med Chem Lett, 2004).
Converted amounts (≈) assume the structure as drawn.

Tests used:
Type in all cases: functional
Enterococcus faecalis [1] = assay: Antimicrobial activity against Enterococcus faecalis GC 2242 (VRE)
Escherichia coli [2] = assay: Antimicrobial activity against Escherichia coli GC 4559
Escherichia coli [3] = assay: Antimicrobial activity against Escherichia coli GC 4560
Enterococcus faecalis [4] = assay: Antimicrobial activity against Enterococcus faecalis GC 4555 (ATCC)
[5] = Inhibitory activity against MurA from Escherichia coli
[6] = Inhibitory activity against MurB from Escherichia coli
[7] = Inhibitory activity against MurB from Staphylococcus aureus
[8] = Antimicrobial activity against MSCNS (methicillin-susceptible coagulase-negative staphylococci) GC 646; conditions: Staphylococcus
Staphylococcus aureus [9] = assay: Antimicrobial activity against Staphylococcus aureus GC 1131 (MRSA)
Staphylococcus aureus [10] = assay: Antimicrobial activity against Staphylococcus aureus GC 2216 (ATCC)
Staphylococcus aureus [11] = assay: Antimicrobial activity against Staphylococcus aureus GC 4543 (MSSA)
Streptococcus pneumoniae [12] = assay: Antimicrobial activity against Streptococcus pneumoniae GC1894 (PRSP) in the presence of 4% bovine serum albumin
Streptococcus pneumoniae [13] = assay: Antimicrobial activity against Streptococcus pneumoniae GC1894 (PRSP)

| MIC (Enterococcus faecalis [1]) | MIC (Escherichia coli [2]) | MIC (Escherichia coli [3]) | MIC (Enterococcus faecalis [4]) | IC50 [5] | IC50 [6] | IC50 [7] | MIC [8] | MIC (Staphylococcus aureus [9]) | MIC (Staphylococcus aureus [10]) | MIC (Staphylococcus aureus [11]) | MIC (Streptococcus pneumoniae [12]) | MIC (Streptococcus pneumoniae [13]) | SMILES |
| --- | --- | --- | --- | --- | --- | --- | --- | --- | --- | --- | --- | --- | --- |
| 1 µg/mL (≈ 3 µM) | > 128 µg/mL | 2 µg/mL (≈ 6 µM) | 1 µg/mL (≈ 3 µM) | 4.6 µg/mL (≈ 13.8 µM) | 3.8 µg/mL (≈ 11.4 µM) | 3 µg/mL (≈ 9 µM) | 0.5 µg/mL (≈ 1.5 µM) | 1 µg/mL (≈ 3 µM) | 0.25 µg/mL (≈ 0.75 µM) | 0.5 µg/mL (≈ 1.5 µM) | 128 µg/mL | 0.25 µg/mL (≈ 0.75 µM) | O=C(Nc1ccc(Cl)c(Cl)c1)Nc1ncc([N+](=O)[O-])s1 |
| 64 µg/mL (≈ 195 µM) | > 128 µg/mL | > 128 µg/mL | 64 µg/mL (≈ 195 µM) | > 25 µg/mL | > 25 µg/mL | 24 µg/mL (≈ 73.1 µM) | > 128 µg/mL | > 128 µg/mL | > 128 µg/mL | > 128 µg/mL | > 128 µg/mL | 128 µg/mL (≈ 390 µM) | N#Cc1cnc(NC(=O)OCc2ccc(Cl)c(Cl)c2)s1 |
| < 0.12 µg/mL | > 128 µg/mL | 0.5 µg/mL (≈ 1.35 µM) | 0.25 µg/mL (≈ 0.677 µM) | 3.3 µg/mL (≈ 8.94 µM) | 6.2 µg/mL (≈ 16.8 µM) | 2.8 µg/mL (≈ 7.58 µM) | < 0.12 µg/mL | < 0.12 µg/mL | < 0.12 µg/mL | < 0.12 µg/mL | 128 µg/mL | < 0.12 µg/mL | CC(C)(C)c1nc(NC(=O)Nc2ccc(Cl)c(Cl)c2)sc1C#N |
| 0.5 µg/mL (≈ 1.49 µM) | > 128 µg/mL | 1 µg/mL (≈ 2.97 µM) | 1 µg/mL (≈ 2.97 µM) | > 25 µg/mL | > 25 µg/mL | – | 0.5 µg/mL (≈ 1.49 µM) | < 0.12 µg/mL | < 0.12 µg/mL | < 0.12 µg/mL | 128 µg/mL | < 0.12 µg/mL | CC(C)(C)c1nc(NC(=O)Nc2ccc(F)c(F)c2)sc1C#N |
| 1 µg/mL (≈ 2.6 µM) | > 128 µg/mL | > 128 µg/mL | 2 µg/mL (≈ 5.2 µM) | 25 µg/mL (≈ 65.1 µM) | 18 µg/mL (≈ 46.8 µM) | – | > 128 µg/mL | 2 µg/mL (≈ 5.2 µM) | 8 µg/mL (≈ 20.8 µM) | 1 µg/mL (≈ 2.6 µM) | > 128 µg/mL | 0.25 µg/mL (≈ 0.651 µM) | CC(C)(C)c1nc(NC(=O)OCc2ccc(Cl)c(Cl)c2)sc1C#N |
| 4 µg/mL (≈ 11.7 µM) | > 128 µg/mL | > 128 µg/mL | 32 µg/mL (≈ 93.2 µM) | 21.6 µg/mL (≈ 62.9 µM) | 9.8 µg/mL (≈ 28.6 µM) | – | > 128 µg/mL | > 128 µg/mL | > 128 µg/mL | > 128 µg/mL | > 128 µg/mL | > 128 µg/mL | COc1nc(NC(=O)Nc2ccc(Cl)c(Cl)c2)sc1C#N |
| 0.25 µg/mL (≈ 0.649 µM) | > 128 µg/mL | > 128 µg/mL | 0.25 µg/mL (≈ 0.649 µM) | > 25 µg/mL | 5.8 µg/mL (≈ 15.1 µM) | – | 0.25 µg/mL (≈ 0.649 µM) | 0.5 µg/mL (≈ 1.3 µM) | 0.5 µg/mL (≈ 1.3 µM) | 0.25 µg/mL (≈ 0.649 µM) | 128 µg/mL | < 0.12 µg/mL | CC(C)COc1nc(NC(=O)Nc2ccc(Cl)c(Cl)c2)sc1C#N |
| 0.5 µg/mL (≈ 1.4 µM) | > 128 µg/mL | 0.5 µg/mL (≈ 1.4 µM) | > 128 µg/mL | > 25 µg/mL | 23 µg/mL (≈ 64.4 µM) | – | 0.5 µg/mL (≈ 1.4 µM) | 1 µg/mL (≈ 2.8 µM) | 0.5 µg/mL (≈ 1.4 µM) | 0.5 µg/mL (≈ 1.4 µM) | 128 µg/mL | < 0.12 µg/mL | CCOc1nc(NC(=O)Nc2ccc(Cl)c(Cl)c2)sc1C#N |
| 4 µg/mL (≈ 14.3 µM) | 8 µg/mL (≈ 28.5 µM) | 4 µg/mL (≈ 14.3 µM) | 4 µg/mL (≈ 14.3 µM) | > 25 µg/mL | 19 µg/mL (≈ 67.8 µM) | – | 4 µg/mL (≈ 14.3 µM) | 4 µg/mL (≈ 14.3 µM) | 4 µg/mL (≈ 14.3 µM) | 2 µg/mL (≈ 7.14 µM) | 64 µg/mL | 0.5 µg/mL (≈ 1.78 µM) | N#Cc1cnc(NC(=O)Nc2ccc(F)c(F)c2)s1 |

| SMILES | MIC (Enterococcus faecalis [1]) | MIC (Escherichia coli [2]) | MIC (Escherichia coli [3]) | MIC (Enterococcus faecalis [4]) | IC50 [5] | IC50 [6] | IC50 [7] | MIC [8] | MIC (Staphylococcus aureus [9]) | MIC (Staphylococcus aureus [10]) | MIC (Staphylococcus aureus [11]) | MIC (Streptococcus pneumoniae [12]) | MIC (Streptococcus pneumoniae [13]) |
| --- | --- | --- | --- | --- | --- | --- | --- | --- | --- | --- | --- | --- | --- |
| CN[C@H](CC(C)C)C(=O)N[C@H]1C(=O)N[C@@H](CC(N)=O)C(=O)N[C@H]2C(=O)N[C@H]3C(=O)N[C@H](C(=O)N[C@H](C(=O)O)c4cc(O)cc(O)c4-c4cc3ccc4O)[C@H](O)c3ccc(c(Cl)c3)Oc3cc2cc(c3O[C@@H]2O[C@H](CO)[C@@H](O)[C@H](O)[C@H]2O[C@H]2C[C@](C)(N)[C@H](O)[C@H](C)O2)Oc2ccc(cc2Cl)[C@H]1O [VANCOMYCIN] | > 128 µg/mL | > 128 µg/mL | 0.25 µg/mL (≈ 0.173 µM) | 2 µg/mL (≈ 1.38 µM) | – | – | – | – | – | – | – | – | < 0.12 µg/mL |
